Data as given in BindingDB's records for doi:10.1021/jm0301078 (Merck Frosst Centre For Therapeutic Research, 2003).

Columns and labels:
Assay in all cases: Enzyme Inhibition Assay
Cathepsin S = Cathepsin S (Homo sapiens, UniProt P25774)
Protocol: (§1) Prior to the addition of substrate, different concentrations of the inhibitor ranging from 100 uM to 0.2 nM were preincubated for 15 min with enzyme to allow the establishment of the enzyme-inhibitor complex. The proteolytic cleavage of N-acyl aminocoumarins by cathepsins was conducted in 96-well plate format and the plate read using a Spectramax (Molecular Devices) plate reader. […] The percent inhibition of the reaction was calculated from a control reaction containing only vehicle. IC50 curves were generated by fitting percent inhibition values to a four parameter logistic model (SOFTMAX PRO, Molecular Devices).

Cathepsin K = molecular target: T1, Cathepsin K (Homo sapiens, UniProt P43235); conditions: pH 5.5; 22 °C
T1 sequence (P43235 whole entry): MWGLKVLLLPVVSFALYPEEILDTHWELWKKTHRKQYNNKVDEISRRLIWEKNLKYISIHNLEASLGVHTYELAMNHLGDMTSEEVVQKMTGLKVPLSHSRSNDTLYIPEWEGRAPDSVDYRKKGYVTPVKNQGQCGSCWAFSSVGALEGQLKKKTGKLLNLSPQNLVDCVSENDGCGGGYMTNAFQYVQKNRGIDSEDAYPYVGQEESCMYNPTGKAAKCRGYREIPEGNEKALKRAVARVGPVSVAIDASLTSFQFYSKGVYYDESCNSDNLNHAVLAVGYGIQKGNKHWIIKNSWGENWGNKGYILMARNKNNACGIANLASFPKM
Protocol: as §1

Procathepsin L = Procathepsin L (Homo sapiens, UniProt P07711)
Protocol: as §1

Chain of Cathepsin S (P25774 whole entry): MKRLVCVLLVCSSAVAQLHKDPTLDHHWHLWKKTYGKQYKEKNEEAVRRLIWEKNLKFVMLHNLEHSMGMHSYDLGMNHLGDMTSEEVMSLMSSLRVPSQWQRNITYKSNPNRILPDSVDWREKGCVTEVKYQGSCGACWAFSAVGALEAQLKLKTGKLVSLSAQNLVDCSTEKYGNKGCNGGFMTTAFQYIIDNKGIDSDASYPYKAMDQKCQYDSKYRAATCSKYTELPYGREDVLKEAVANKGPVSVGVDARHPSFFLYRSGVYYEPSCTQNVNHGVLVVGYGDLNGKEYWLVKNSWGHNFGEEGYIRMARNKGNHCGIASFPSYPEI
Chain of Procathepsin L (P07711 whole entry): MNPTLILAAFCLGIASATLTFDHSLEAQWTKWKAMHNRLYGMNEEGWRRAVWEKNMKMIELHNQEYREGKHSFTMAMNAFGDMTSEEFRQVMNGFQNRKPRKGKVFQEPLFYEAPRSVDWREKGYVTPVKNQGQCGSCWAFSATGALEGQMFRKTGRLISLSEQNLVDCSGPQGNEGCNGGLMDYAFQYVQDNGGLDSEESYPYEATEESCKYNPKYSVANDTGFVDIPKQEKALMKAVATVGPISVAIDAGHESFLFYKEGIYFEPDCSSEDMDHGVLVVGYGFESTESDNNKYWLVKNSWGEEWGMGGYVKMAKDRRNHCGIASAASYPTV

Compound	IC50 (Cathepsin S) [µM]	IC50 (Cathepsin K) [µM]	IC50 (Procathepsin L) [µM]
CC(C)CC(C(=O)NCC#N)c1cccc(-c2cccc(N3CCOCC3)c2)c1 (centres undefined) [N-(cyanomethyl)-4-methyl-2-{3-[3-(morpholin-4-yl)phenyl]phenyl}pentanamide]	> 10	0.63	> 10
CC(C)CC(C(=O)NCC#N)c1cccc(-c2cccc(N3CCNCC3)c2)c1 (centres undefined) [N-(cyanomethyl)-4-methyl-2-{3-[3-(piperazin-1-yl)phenyl]phenyl}pentanamide]	> 10	0.216	> 10
CC(C)C[C@@H](C(=O)NCC#N)c1cccc(-c2ccc(-c3nnn[nH]3)cc2)c1 [(2R)-N-(cyanomethyl)-4-methyl-2-{3-[4-(1H-1,2,3,4-tetrazol-5-yl)phenyl]phenyl}pentanamide]	> 10	2.58	> 10
CC(C)CC(C(=O)NCC#N)c1cccc(-c2cccnc2)c1 (centres undefined) [N-(cyanomethyl)-4-methyl-2-[3-(pyridin-3-yl)phenyl]pentanamide]	> 10	0.488	5.58

Compounds with a lower IC50 (Cathepsin S), results first:

IC50 (Cathepsin S) [µM]	IC50 (Cathepsin K) [µM]	IC50 (Procathepsin L) [µM]	Compound
8.04	0.803	5.95	CC(C)CC(C(=O)NCC#N)c1cccc(-c2ccccn2)c1 (centres undefined) [N-(cyanomethyl)-4-methyl-2-[3-(pyridin-2-yl)phenyl]pentanamide]
3.37	0.614	0.919	CC(C)CC(C(=O)NCC#N)c1cccc(-c2ccccc2N2CCOCC2)c1 (centres undefined) [N-(cyanomethyl)-4-methyl-2-{3-[2-(morpholin-4-yl)phenyl]phenyl}pentanamide]
1.75	0.15	5.78	CC(C)CC(C(=O)NCC#N)c1cccc(-c2ccncc2)c1 (centres undefined) [N-(cyanomethyl)-4-methyl-2-[3-(pyridin-4-yl)phenyl]pentanamide]
0.521	0.058	0.338	CC(C)CC(C(=O)NCC#N)c1cccc(-c2ccccc2N2CCNCC2)c1 (centres undefined) [N-(cyanomethyl)-4-methyl-2-{3-[2-(piperazin-1-yl)phenyl]phenyl}pentanamide]
